Experimental data published in patent US5658781A, “Insecticidally effective peptides” (priority 1995, dated 1997).

What was measured:
[1] = test system: maggot neuromuscular junction; assay: Neuromuscular junction EPSP recording in house fly larvae; type: cell-based, Musca domestica
maggot peripheral nerves = assay: Extracellular recording from house fly larval peripheral nerves; type: cell-based, Musca domestica
[2] = test system: cabbage looper (Trichoplusia ni); assay: Toxin injection PD50 in CL larvae; type: in vivo
[3] = test system: tobacco budworm (Heliothis virescens); assay: Injection paralysis assay in tobacco budworm larvae; type: in vivo
mice = type: in vivo; conditions: i.p., approximate dose 0.9 mg/kg
Description: Whole venom, 5 μl, obtained from D. canities as described herein was fatal to mice by intraperitoneal injection (i.p.) in three separate tests. Treated mice were initially indistinguishable from saline controls. About 10 to 15 minutes after injection, treated mice became moderately hyperactive, displaying a characteristic hopping gait; this was followed by a short period of uncoordination, labored breathing and convulsions. Death followed within 2 minutes of the initial onset of symptoms.
Residue 9.2 was injected into the intracerebral ventricles in four mice (approx. 28 gm) at a dose of approximately 30 μg per animal (approximately 1 mg/kg).
To characterize the vertebrate toxicity of this venom, pooled reversed-phase fractions of whole venom were tested in mice (FIG. 1). Fraction 2 comprised the components with tobacco budworm (TBW) activity.

[4] = test system: beet armyworm (Spodoptera exigua); assay: Toxin injection PD50 in BAW larvae; type: in vivo

| Molecule | effect on sensitivity to subsequent treatment with 100 nM DK 9.2 [1] | effect on the EPSP [1] | effect on DK 9.2-induced increase in nerve discharge (maggot peripheral nerves) | PD50 [2] [nmol/gm] | PD50 ([3]; TBW larvae, injection, probit analysis) [nmol/gm] | insects exhibiting paralysis after 24 hours ([3]; TBW, 5.0 WVE/g, 24 hours) [%] | insects exhibiting paralysis after 48 hours ([3]; TBW, 5.0 WVE/g, 48 hours) [%] | effects in mice within 24 hours (mice) | PD50 [4] [nmol/gm] |
| --- | --- | --- | --- | --- | --- | --- | --- | --- | --- |
| NC1=N[C@H](O)[C@H]2[C@H]3O[C@]4(O)O[C@@H]([C@@H](O)[C@@]2(N1)[C@@H]4O)[C@]3(O)CO [TTX, tetrodotoxin] | rendered the preparation insensitive | rapidly blocked | rapidly blocked |  |  |  |  |  |  |
| DK 11: Insecticidal peptide isolated from Diguetia canities venom, SEQ ID NO:3, about 6700 or 6740 daltons (AKDGDVKGPAGCMKYKSGDCRGKTCCDQQ) |  |  |  | 0.86 | 0.71 | 80 | 60 | no effects seen | < 1.5 |
